Results taken from paper PMC7870626, “Neurotoxicity and underlying cellular changes of 21 mitochondrial respiratory chain inhibitors” (Archives of Toxicology, 2021).

Experiments:
LUHMES cells = assay: NeuroGlycoTest (metabolic glycoengineering, KE3 assay); format: cell-based, human; details: d6 LUHMES, 6 h
Experimental: The NeuroGlycoTest was performed as previously described (Kranaster et al. [2020]). In brief, d6 LUHMES cells were co-treated for 6 h with the respiratory chain inhibitors together with 10 µM azide-tagged mannosamine precursor sugar (Ac4ManNAz), synthesized according to published procedures (Saxon et al. [2002]). After PBS-washing, a dibenzylcyclooctyne-PEG4-biotin (DBCO-biotin) [100 μM] (Jena Bioscience, Jena, Germany) solution was added for 20 min at 37 °C to label the incorporated azide-tagged sialic acids (= SiaAz).
For detection of MGE-sialoproteins, cells in 6-well plates were lyzed in Laemmli buffer and boiled for 5 min at 95 °C. […] Relative band intensity was quantified using a self-developed image evaluation software. […] At least two blots from independent experiments were quantified.
For detection of neurite MGE, cells in 8-well µ-slides were further incubated with a mixture of streptavidin-Alexa Fluor 488 [8 μg/ml] […] The processed images were analyzed using the SUIKER software (Karreman et al. [2019]) that simultaneously, from the same image, detected and quantified viability (based on the Hoechst staining), neurite area (based on the Calcein staining) and neurite MGE sialic acids (based on the streptavidin-Alexa Fluor 488 label). […]

HepG2 cells = test system: HepG2 cells; parameters: method as in van der Stel et al. 2020; details: ref van der Stel et al. 2020; cited from earlier work

SMILES	Reduction of neurite area in the NeuroGlycoTest (LUHMES cells; highest non-cytotoxic concentration)	Neurite MGE signal / proteostasis disturbance (in words) (LUHMES cells; highest non-cytotoxic concentration (antimycin A 50 µM))	Mode of action found in HepG2 cells (HepG2 cells)
CCCCCC[C@H]1C(=O)O[C@H](C)[C@H](NC(=O)c2cccc(NC=O)c2O)C(=O)O[C@@H](C)[C@@H]1OC(=O)CC(C)C [Antimycin A]	more than 25%	strong decrease	
Cc1ccc(-c2c(Cl)nc(C#N)n2S(=O)(=O)N(C)C)cc1 [Cyazofamid]			uncoupler
